According to patent publication US20210107953A1, “ACTIVE POLYPEPTIDE COMPOUND” (SHAANXI MICOT TECHNOLOGY LIMITED COMPANY, priority 2019, published 2021):

Legend:
[1] = tested on: ovary removed SD rats (OVX induced rat osteoporosis model); test: Bone mineral density (DXA) in ovariectomy-induced osteoporosis rats; type: in vivo; conditions: for 0 w Bone mineral density lumbar vertebra / 0 w Bone mineral density thigh bone: 0 w (before administration, baseline); for 25 w Bone mineral density lumbar vertebra / 25 w Bone mineral density thigh bone / 0-25 w percentage of change % lumbar vertebra (bone mineral density) / 0-25 w percentage of change % thigh bone (bone mineral density): 5 times a week; for 0-25 w percentage of change % lumbar vertebra (bone mineral density) / 0-25 w percentage of change % thigh bone (bone mineral density): 25 w vs before administration
Excerpt: The animals had free access to water. […] 1) Bone mineral density (BMD) was detected with a dual-energy X-ray bone densitometry (DXA) before model establishment (−13 w), before administration (0 w), and 6 w, 12 w, 25 w, 37 w and 49 w after administration. […] The data were represented by mean value±standard error. Percentage of bone mineral density change=(bone mineral density at the detection time point−bone density before administration)/bone density before administration*100%

[2] = tested on: retinoic acid-induced osteoporosis rats; test: CT detection of bone microstructure of thigh bone in retinoic acid-induced osteoporosis rats; type: in vivo, SD rats; conditions: RA-induced osteoporosis rats, 12 w
Method: The data were represented by mean value±standard error. After the experiment was completed, thigh bone on the right side of rats were collected, and subjected to CT detection, and […] (BV/TV), the number of trabeculae (TbN) and trabeculae spacing (TbSp) were calculated, and the results were shown in Table 4. An example was selected from each of Control group, Model group, abaloptide group, 20 μg/kg dosage group of Example 1, 20 μg/kg dosage group of Example 2 and 20 μg/kg dosage group of Example 5, and the scanned figures by micron X-ray 3D imaging system of trochlea of their thigh bone were shown in FIG. 1.

[3] = tested on: retinoic acid-induced osteoporosis rats; test: Three-point mechanical test of thigh bone in retinoic acid-induced osteoporosis rats; type: in vivo, SD rats; conditions: 12 w; for Peak load of three-point mechanics (thigh bone): RA-induced osteoporosis rats
Method: Experimental method: SD rats were administered by gavage to induce a rat osteoporosis model. After model establishment, the rats were randomly grouped according to bone mineral densities of thigh bone: (1) vehicle group (Control group): normal saline was subcutaneously administered in an equal volume to the test compound, and soybean oil was administered by gavage in an equal volume to retinoic acid; (2) Model group: normal saline of the same volume was subcutaneously administered; and administered with retinoic acid (RA) by gavage every other day to maintain osteoporosis state; (3) 20 μg dosage group of positive drug abaloptide (Aba-20): 10 μg/kg abaloptide was subcutaneously administered, and retinoic acid was administered by gavage every other day. Administration groups of three dosages were set for each test compound. −10 μg/kg dosage group of the test compound: 10 μg/kg test compound was subcutaneously administered, and retinoic acid was administered by gavage every other day. −20 μg/kg dosage group of the test compound: 20 μg/kg test compound was subcutaneously administered, and retinoic acid was administered by gavage every other day. −40 μg/kg dosage group of the test compound: 40 μg/kg test compound was subcutaneously administered, and retinoic acid was administered by gavage every other day. The administration was carried out 5 times a week, with normal saline as the diluent of test drug, and the administration successively lasted for 12 weeks. The induction dosage of retinoic acid was about 80 mg/kg and the maintenance dosage after model establishment was about 30 mg/Kg, and solvent of inducing agent was soybean oil. […] The thigh bone on the left was subjected to three-point bending test, and the thigh bone on the right was subjected to CT scan and was used to prepare a pathological section. Statistical analysis of data: the data were treated with SPSS 20 software. The data in line with normality test were subjected to one-way analysis of variance; and the data not in line with normality test were subjected to rank sum test. The data were represented by mean value±standard error.

[4] = 5 μg/kg subcutaneous, listed as abaloptide

With “Ala-Val-Ser-Glu-His-Gln-Leu-Leu-His-Asp-Lys-Gly-Lys-Ser-Ile-Gln-Asp-Leu-Arg-Arg-Arg-Glu-Leu-Leu-Glu-Lys-Leu-Leu-Ala-Lys-Leu-His-Thr-Ala-Tyr-Arg-Gly-Phe-Gly-Gly (AVSEHQLLHDKGKSIQDLRRRELLEKLLAKLHTAYRGFGG; The sequence is synthesized) [Example 3]” the “0 w Bone mineral density lumbar vertebra” value ([1]; 2.5 μg/kg group) was 0.24 ± 0 g/cm^2, the “0 w Bone mineral density thigh bone” value ([1]; 2.5 μg/kg group) was 0.23 ± 0 g/cm^2 and the “25 w Bone mineral density lumbar vertebra” value ([1]; 2.5 μg/kg subcutaneous) was 0.27 ± 0 g/cm^2. For the same substance, the “25 w Bone mineral density thigh bone” value ([1]; 2.5 μg/kg subcutaneous) was 0.26 ± 0 g/cm^2, the “0-25 w percentage of change % lumbar vertebra (bone mineral density)” value ([1]; 2.5 μg/kg subcutaneous) was 12.4 ± 2.2 % and the “0-25 w percentage of change % thigh bone (bone mineral density)” value (“0-25 w percentage of change % thigh bone” for short) ([1]; 2.5 μg/kg subcutaneous) was 14.03 ± 1.81 %. For the same substance, the “0 w Bone mineral density lumbar vertebra” value ([1]; 5 μg/kg group) was 0.24 ± 0 g/cm^2, the “0 w Bone mineral density thigh bone” value ([1]; 5 μg/kg group) was 0.23 ± 0 g/cm^2 and the “25 w Bone mineral density lumbar vertebra” value ([1]; 5 μg/kg subcutaneous) was 0.29 ± 0.01 g/cm^2. The “25 w Bone mineral density thigh bone” value ([1]; 5 μg/kg subcutaneous) was 0.29 ± 0.02 g/cm^2, the “0-25 w percentage of change % lumbar vertebra (bone mineral density)” value ([1]; 5 μg/kg subcutaneous) was 20.41 ± 2.56 % and the “0-25 w percentage of change % thigh bone” value ([1]; 5 μg/kg subcutaneous) was 27.19 ± 1.33 %. The “0 w Bone mineral density lumbar vertebra” value ([1]; 10 μg/kg group) was 0.24 ± 0.01 g/cm^2, the “0 w Bone mineral density thigh bone” value ([1]; 10 μg/kg group) was 0.23 ± 0 g/cm^2 and the “25 w Bone mineral density lumbar vertebra” value ([1]; 10 μg/kg subcutaneous) was 0.29 ± 0.01 g/cm^2. The “25 w Bone mineral density thigh bone” value ([1]; 10 μg/kg subcutaneous) was 0.29 ± 0 g/cm^2, the “0-25 w percentage of change % lumbar vertebra (bone mineral density)” value ([1]; 10 μg/kg subcutaneous) was 22.46 ± 2.25 % and the “0-25 w percentage of change % thigh bone” value ([1]; 10 μg/kg subcutaneous) was 28.7 ± 1.6 %. The “BV/TV (CT, thigh bone)” value ([2]; 10 μg/kg subcutaneous) was 0.33, the “TbN, number of trabeculae (CT, thigh bone)” value (shortened to “TbN, number of trabeculae”) ([2]; 10 μg/kg subcutaneous) was 4.17 mm^−1 and the “TbSp, trabeculae spacing (CT, thigh bone)” value (shortened to “TbSp, trabeculae spacing”) ([2]; 10 μg/kg subcutaneous) was 0.20 mm. The “BV/TV (CT, thigh bone)” value ([2]; 20 μg/kg subcutaneous) was 0.30, the “TbN, number of trabeculae” value ([2]; 20 μg/kg subcutaneous) was 4.21 mm^−1 and the “TbSp, trabeculae spacing” value ([2]; 20 μg/kg subcutaneous) was 0.17 mm. The “BV/TV (CT, thigh bone)” value ([2]; 40 μg/kg subcutaneous) was 0.39, the “TbN, number of trabeculae” value ([2]; 40 μg/kg subcutaneous) was 4.22 mm^−1 and the “TbSp, trabeculae spacing” value ([2]; 40 μg/kg subcutaneous) was 0.15 mm. For the same substance, the “Peak load of three-point mechanics (thigh bone)” value (from here on “Peak load … (thigh bone)”) ([3]; 10 μg/kg subcutaneous) was 97.65 N, the “Peak load … (thigh bone)” value ([3]; 20 μg/kg subcutaneous) was 126.54 N and the “Peak load … (thigh bone)” value ([3]; 40 μg/kg subcutaneous) was 131.74 N.
With abaloptide [reference compound] the “0 w Bone mineral density lumbar vertebra” value ([1]; 5 μg/kg group) was 0.24 ± 0 g/cm^2, the “0 w Bone mineral density thigh bone” value ([1]; 5 μg/kg group) was 0.23 ± 0 g/cm^2 and the “25 w Bone mineral density lumbar vertebra” value ([1]; 5 μg/kg subcutaneous) was 0.3 ± 0 g/cm^2. The “25 w Bone mineral density thigh bone” value ([1]; 5 μg/kg subcutaneous) was 0.3 ± 0 g/cm^2, the “0-25 w percentage of change % lumbar vertebra (bone mineral density)” value ([1]; 5 μg/kg subcutaneous) was 21.66 ± 2.12 % and the “0-25 w percentage of change % thigh bone” value ([1]; 5 μg/kg subcutaneous) was 30.28 ± 2 %. For the same substance, the “0-25 w percentage of change % lumbar vertebra (bone mineral density)” value [1, 4] was 21.66±2.12%, the “0-25 w percentage of change % thigh bone” value [1, 4] was 30.28±2% and the “BV/TV (CT, thigh bone)” value ([2]; 20 μg/kg subcutaneous) was 0.28. For the same substance, the “TbN, number of trabeculae” value ([2]; 20 μg/kg subcutaneous) was 3.4 mm^−1, the “TbSp, trabeculae spacing” value ([2]; 20 μg/kg subcutaneous) was 0.22 mm and the “peak load of thigh bone compared with Model group” value ([3]; 20 μg/kg dosage group) was “did not significantly increase”. The “Peak load … (thigh bone)” value ([3]; 20 μg/kg subcutaneous) was 119.57 N.
